Test results: publication PMC9457941, “Synthesis and Kinase Inhibitory Potencies of Pyrazolo[3,4-g]isoquinolines” (Molecules, 2022)
pIC50: −log10 of the molar value.

Assays:
[1] = molecular target: T1, Haspin-kd (human, kinase domain, amino acids 470–798) (Homo sapiens, UniProt Q8TF76); test: ADP-Glo kinase inhibition assay, Haspin; assay type: biochemical; settings: for pIC50: 10 μM ATP, duplicate; for remaining activity at 1 µM: read-out: Haspin % residual activity at 1 μM; for remaining activity at 10 µM: read-out: Haspin % residual activity at 10 μM
T1 construct: Haspin-kd (human, kinase domain, amino acids 470–798, recombinant, expressed in bacteria); host or cells: bacteria
T1 sequence (Q8TF76 470-798): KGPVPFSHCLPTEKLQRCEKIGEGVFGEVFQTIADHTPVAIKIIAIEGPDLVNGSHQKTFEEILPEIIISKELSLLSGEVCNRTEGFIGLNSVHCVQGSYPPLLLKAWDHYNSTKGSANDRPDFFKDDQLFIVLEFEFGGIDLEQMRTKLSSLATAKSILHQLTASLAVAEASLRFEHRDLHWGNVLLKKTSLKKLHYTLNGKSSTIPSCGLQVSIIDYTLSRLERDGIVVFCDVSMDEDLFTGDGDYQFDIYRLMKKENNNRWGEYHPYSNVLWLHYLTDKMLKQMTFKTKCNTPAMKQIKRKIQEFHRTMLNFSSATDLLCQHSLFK
Protocol: (§1) Kinase enzymatic activities were assayed in 384 well plates using the ADP-GloTM assay kit (Promega, Madison, WI, USA) according to the manufacturer’s guidance. Briefly, the reactions were carried out in a final volume of 6 μL for 30 min at 30 °C in an appropriate kinase buffer (10 mM MgCl2, 1 mM EGTA, 1 mM DTT, 25 mM Tris-HCl pH 7.5, 50 μg/mL heparin), with either protein or peptide as substrate in the presence of 10 μM ATP (40 mM Tris pH 7.5, 20 mM MgCl2 and 0.1 mg/mL of BSA). Afterward, 6 μL of ADP-GloTM Kinase Reagent was added to stop the kinase reaction. After an incubation time of 50 min at room temperature (RT), 12 μL of Kinase Detection Reagent was added for 1 h at RT. The transmitted signal was measured using the Envision (Perkin Elmer, Waltham, MA, USA) microplate luminometer and expressed in relative light unit (RLU). In order to determine the half maximal inhibitory concentration (IC50), the assays were performed in duplicate in the absence or presence of increasing doses of the tested compounds. GraphPad Prism6 software (GraphPad Software, San Diego, CA, USA) was used to fit dose–response curves and to determine the IC50 values. Kinase activities are expressed in the percentage of maximal activity, i.e., measured in the absence of an inhibitor. Peptide substrates were obtained from Proteogenix (Schiltigheim, France).

MmCLK1 = molecular target: T2, MmCLK1 (Mus musculus, UniProt P22518); test: ADP-Glo kinase inhibition assay, CLK1; assay type: biochemical; settings: for pIC50: 10 μM ATP, duplicate, read-out: CLK1 IC50; for remaining activity at 1 µM: read-out: CLK1 % residual activity at 1 μM; for remaining activity at 10 µM: read-out: CLK1 % residual activity at 10 μM
T2 construct: host or cells: bacteria
T2 sequence (P22518 whole entry): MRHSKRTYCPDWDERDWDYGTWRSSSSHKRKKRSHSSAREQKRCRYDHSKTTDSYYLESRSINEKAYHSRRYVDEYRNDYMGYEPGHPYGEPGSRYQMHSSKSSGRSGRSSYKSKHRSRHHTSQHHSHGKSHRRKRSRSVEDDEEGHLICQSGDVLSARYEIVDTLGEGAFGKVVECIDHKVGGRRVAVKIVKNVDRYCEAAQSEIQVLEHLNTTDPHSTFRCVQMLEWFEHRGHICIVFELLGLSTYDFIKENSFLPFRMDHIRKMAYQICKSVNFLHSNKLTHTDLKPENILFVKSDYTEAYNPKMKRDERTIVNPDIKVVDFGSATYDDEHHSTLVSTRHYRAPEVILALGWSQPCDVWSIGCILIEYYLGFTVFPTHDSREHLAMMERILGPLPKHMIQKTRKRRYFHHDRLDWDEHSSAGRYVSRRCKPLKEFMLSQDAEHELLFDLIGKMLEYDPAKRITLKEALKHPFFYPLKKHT
Protocol: as §1
(§2) The following protein kinases were analyzed in this study: CDK5/p25 (human, recombinant, expressed in bacteria) was assayed with 0.8 μg/μL of histone H1 as substrate; CDK9/CyclinT (human, recombinant, expressed by baculovirus in Sf9 insect cells) were assayed with 0.27 μg/μL of the following peptide: […], as substrate; CK1ε (human, recombinant, expressed by baculovirus in Sf9 insect cells) was assayed with 0.022 μg/μL of the following peptide: […]pAYSITA (“Sp” stands for phosphorylated serine) as CK1-specific substrate; GSK3β (human, recombinant, expressed by baculovirus in Sf9 insect cells) were assayed with 0.010 μg/μL of GS-1 peptide, a GSK-3-selective substrate ([…]pEDEEE); Haspin-kd (human, kinase domain, amino acids 470–798, recombinant, expressed in bacteria) was assayed with 0.007 μg/μL of histone H3 (1–21) peptide ([…]) as substrate; Pim-1 (human proto-oncogene, recombinant, expressed in bacteria) was assayed with 0.8 μg/μL of histone H1 as substrate; MmCLK1 (from Mus musculus, recombinant, expressed in bacteria) was assayed with 0.027 μg/μL of the following peptide: […] as substrate; RnDYRK1A-kd (Rattus norvegicus, amino acids 1–499 including the kinase domain, recombinant, expressed in bacteria, DNA vector kindly provided by Dr. W. Becker, Aachen, Germany) was assayed with 0.033 μg/μL of the following peptide: […] as substrate.

RnDYRK1A-kd = molecular target: T3, RnDYRK1A-kd (Rattus norvegicus, UniProt Q63470); test: ADP-Glo kinase inhibition assay, DYRK1A; assay type: biochemical; settings: for pIC50: 10 μM ATP, duplicate, read-out: DYRK1A IC50; for remaining activity at 1 µM: read-out: DYRK1A % residual activity at 1 μM; for remaining activity at 10 µM: read-out: DYRK1A % residual activity at 10 μM
T3 construct: RnDYRK1A-kd (Rattus norvegicus, amino acids 1–499 including the kinase domain, recombinant, expressed in bacteria); made in house; host or cells: bacteria
Protocol: as §1, §2

CDK9/CyclinT = molecular target: T4, CDK9/CyclinT (Homo sapiens, UniProt P50750); test: ADP-Glo kinase inhibition assay, CDK9/CyclinT; assay type: biochemical; settings: for pIC50: 10 μM ATP, duplicate; for remaining activity at 1 µM: read-out: CDK9 % residual activity at 1 μM; for remaining activity at 10 µM: read-out: CDK9 % residual activity at 10 μM
T4 construct: host or cells: Sf9 insect cells (baculovirus)
T4 sequence (O60563 whole entry): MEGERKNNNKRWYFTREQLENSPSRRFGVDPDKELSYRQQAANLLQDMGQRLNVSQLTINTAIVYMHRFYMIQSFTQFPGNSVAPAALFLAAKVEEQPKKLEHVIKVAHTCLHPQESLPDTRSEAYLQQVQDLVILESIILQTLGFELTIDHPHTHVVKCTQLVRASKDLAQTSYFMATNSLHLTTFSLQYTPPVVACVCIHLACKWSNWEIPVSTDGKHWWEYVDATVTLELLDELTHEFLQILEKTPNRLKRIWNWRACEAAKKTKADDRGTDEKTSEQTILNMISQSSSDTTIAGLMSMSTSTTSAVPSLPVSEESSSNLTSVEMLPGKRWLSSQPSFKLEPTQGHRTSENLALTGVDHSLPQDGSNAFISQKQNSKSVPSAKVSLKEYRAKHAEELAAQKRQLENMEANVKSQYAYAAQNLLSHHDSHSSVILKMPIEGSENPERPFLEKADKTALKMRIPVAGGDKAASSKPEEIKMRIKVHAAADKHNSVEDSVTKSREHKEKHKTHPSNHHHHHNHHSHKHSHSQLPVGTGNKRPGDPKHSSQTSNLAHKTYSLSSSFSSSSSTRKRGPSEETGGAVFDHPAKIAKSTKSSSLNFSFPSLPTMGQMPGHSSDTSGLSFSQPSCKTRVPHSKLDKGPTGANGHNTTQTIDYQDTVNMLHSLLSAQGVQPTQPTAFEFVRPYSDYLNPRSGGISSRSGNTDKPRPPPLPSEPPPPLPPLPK
T4 sequence (P50750 whole entry): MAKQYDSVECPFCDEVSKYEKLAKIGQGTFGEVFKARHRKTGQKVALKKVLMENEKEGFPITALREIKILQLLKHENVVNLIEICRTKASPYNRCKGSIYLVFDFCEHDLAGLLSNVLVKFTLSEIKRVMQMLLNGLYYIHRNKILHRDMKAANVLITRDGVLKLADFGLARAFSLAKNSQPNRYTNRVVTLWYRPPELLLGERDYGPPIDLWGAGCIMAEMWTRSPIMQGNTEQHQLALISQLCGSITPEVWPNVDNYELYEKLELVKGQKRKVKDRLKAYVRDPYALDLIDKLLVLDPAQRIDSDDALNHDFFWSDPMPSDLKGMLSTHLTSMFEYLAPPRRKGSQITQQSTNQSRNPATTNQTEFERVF
Protocol: as §1, §2

GSK3β = molecular target: T5, GSK3β (Homo sapiens, UniProt P49841); test: ADP-Glo kinase inhibition assay, GSK3β; assay type: biochemical; settings: for pIC50: 10 μM ATP, duplicate, read-out: GSK3 IC50; for remaining activity at 1 µM: read-out: GSK3 % residual activity at 1 μM; for remaining activity at 10 µM: read-out: GSK3 % residual activity at 10 μM
T5 construct: host or cells: Sf9 insect cells (baculovirus)
T5 sequence (P49841 whole entry): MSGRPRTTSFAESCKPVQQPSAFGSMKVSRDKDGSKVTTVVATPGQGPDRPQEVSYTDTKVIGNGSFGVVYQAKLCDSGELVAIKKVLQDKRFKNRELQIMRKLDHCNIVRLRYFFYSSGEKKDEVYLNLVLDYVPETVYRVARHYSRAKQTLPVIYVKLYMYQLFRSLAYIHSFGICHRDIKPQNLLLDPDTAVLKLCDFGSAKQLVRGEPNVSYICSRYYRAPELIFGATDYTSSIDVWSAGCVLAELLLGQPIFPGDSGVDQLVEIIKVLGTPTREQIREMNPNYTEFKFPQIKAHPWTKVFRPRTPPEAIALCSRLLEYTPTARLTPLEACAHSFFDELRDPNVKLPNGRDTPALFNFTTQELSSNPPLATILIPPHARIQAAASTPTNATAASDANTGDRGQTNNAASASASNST
Protocol: as §1, §2

CK1ε = molecular target: T6, CK1ε (Homo sapiens, UniProt P49674); test: ADP-Glo kinase inhibition assay, CK1ε; assay type: biochemical; settings: 10 μM ATP, duplicate; for remaining activity at 1 µM: 1 μM compound, read-out: CK1 % residual activity at 1 μM; for remaining activity at 10 µM: 10 μM compound, read-out: CK1 % residual activity at 10 μM
T6 construct: host or cells: Sf9 insect cells (baculovirus)
T6 sequence (P49674 whole entry): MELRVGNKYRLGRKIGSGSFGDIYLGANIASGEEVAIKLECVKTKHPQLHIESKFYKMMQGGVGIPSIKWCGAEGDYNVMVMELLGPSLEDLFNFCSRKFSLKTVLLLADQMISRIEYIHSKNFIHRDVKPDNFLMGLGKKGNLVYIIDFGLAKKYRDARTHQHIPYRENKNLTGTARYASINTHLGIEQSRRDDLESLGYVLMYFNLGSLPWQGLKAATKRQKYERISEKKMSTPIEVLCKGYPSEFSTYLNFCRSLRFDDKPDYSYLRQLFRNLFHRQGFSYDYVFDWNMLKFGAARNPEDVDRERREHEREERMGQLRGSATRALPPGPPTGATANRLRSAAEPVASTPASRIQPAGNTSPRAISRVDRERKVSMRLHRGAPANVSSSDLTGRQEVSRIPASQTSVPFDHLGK
Protocol: as §1, §2

CDK5/p25 = molecular target: T7, CDK5/p25 (Homo sapiens, UniProt Q00535); test: ADP-Glo kinase inhibition assay, CDK5/p25; assay type: biochemical; settings: for remaining activity at 1 µM: read-out: CDK5 % residual activity at 1 μM; for remaining activity at 10 µM: read-out: CDK5 % residual activity at 10 μM
T7 construct: host or cells: bacteria
T7 sequence (Q00535 whole entry): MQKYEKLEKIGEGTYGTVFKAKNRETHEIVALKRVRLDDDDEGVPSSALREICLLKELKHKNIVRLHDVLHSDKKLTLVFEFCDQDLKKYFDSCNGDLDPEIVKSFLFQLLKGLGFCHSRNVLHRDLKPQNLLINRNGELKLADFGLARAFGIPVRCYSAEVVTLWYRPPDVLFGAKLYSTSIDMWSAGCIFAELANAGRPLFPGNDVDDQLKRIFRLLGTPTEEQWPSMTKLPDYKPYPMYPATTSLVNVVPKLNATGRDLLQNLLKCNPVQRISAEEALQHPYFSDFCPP
T7 sequence (Q15078 99-307, further chain): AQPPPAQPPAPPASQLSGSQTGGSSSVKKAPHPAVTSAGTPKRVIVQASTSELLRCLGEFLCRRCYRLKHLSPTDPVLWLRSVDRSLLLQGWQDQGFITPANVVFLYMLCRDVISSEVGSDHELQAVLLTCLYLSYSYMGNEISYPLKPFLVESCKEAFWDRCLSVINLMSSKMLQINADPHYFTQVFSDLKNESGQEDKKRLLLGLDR
Protocol: as §1, §2

Pim-1 = molecular target: T8, Pim-1 (Homo sapiens, UniProt P11309); test: ADP-Glo kinase inhibition assay, Pim-1; assay type: biochemical; settings: 10 μM ATP, duplicate; for remaining activity at 1 µM: 1 μM compound, read-out: PIM1 % residual activity at 1 μM; for remaining activity at 10 µM: 10 μM compound, read-out: PIM1 % residual activity at 10 μM
T8 construct: host or cells: bacteria
T8 sequence (P11309 whole entry): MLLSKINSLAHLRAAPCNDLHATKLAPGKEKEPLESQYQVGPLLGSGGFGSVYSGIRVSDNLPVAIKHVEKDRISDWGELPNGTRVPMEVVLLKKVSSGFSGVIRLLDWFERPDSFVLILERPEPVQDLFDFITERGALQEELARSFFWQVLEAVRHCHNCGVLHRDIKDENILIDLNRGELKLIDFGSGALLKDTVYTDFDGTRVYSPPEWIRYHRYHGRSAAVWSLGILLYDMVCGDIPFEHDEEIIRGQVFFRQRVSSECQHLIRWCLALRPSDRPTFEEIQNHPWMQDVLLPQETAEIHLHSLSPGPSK
Protocol: as §1, §2

[2] = system: Haspin, CLK1, DYRK1A, CDK9/Cyclin T, GSK-3β, CK1ε, CDK5/p25 and Pim1; test: Panel of eight protein kinases (ADP-Glo), statements across kinases; assay type: biochemical; settings: 1 μM compound
Protocol: It should be noted that due to solubility issues, compound 1a could not be tested; only the corresponding methane sulfonate salt 1a’ was evaluated. The percentage of residual kinase activity was evaluated at 10 μM and 1 μM compound concentrations. […].
as §1, with “GraphPad Prism6 software (GraphPad Software, San Diego, CA, USA) was used to fit dose–response curves and to determine the IC50 values.” left out, “Peptide substrates were obtained from Proteogenix (Schiltigheim, France).” left out

panel of 486 kinases = settings: cited from earlier work

| Compound | melting point [°C] | pIC50 [1] | remaining activity at 1 µM [1] [%] | remaining activity at 10 µM [1] [%] | pIC50 (MmCLK1) | remaining activity at 1 µM (MmCLK1) [%] | remaining activity at 10 µM (MmCLK1) [%] | remaining activity at 1 µM (RnDYRK1A-kd) [%] | remaining activity at 10 µM (RnDYRK1A-kd) [%] | pIC50 (CDK9/CyclinT) | remaining activity at 1 µM (CDK9/CyclinT) [%] | remaining activity at 10 µM (CDK9/CyclinT) [%] | remaining activity at 1 µM (GSK3β) [%] | remaining activity at 10 µM (GSK3β) [%] | remaining activity at 1 µM (CK1ε) [%] | remaining activity at 10 µM (CK1ε) [%] | remaining activity at 1 µM (CDK5/p25) [%] | remaining activity at 10 µM (CDK5/p25) [%] | remaining activity at 1 µM (Pim-1) [%] | remaining activity at 10 µM (Pim-1) [%] | also measured |
| --- | --- | --- | --- | --- | --- | --- | --- | --- | --- | --- | --- | --- | --- | --- | --- | --- | --- | --- | --- | --- | --- |
| O=[N+]([O-])c1c2ccncc2cc2cn[nH]c12 | > 250 |  |  |  |  |  |  |  |  |  |  |  |  |  |  |  |  |  |  |  |  |
| CS(=O)(=O)O.O=[N+]([O-])c1c2ccncc2cc2cn[nH]c12 | > 250 |  |  |  |  |  |  |  |  |  |  |  |  |  |  |  |  |  |  |  |  |
| Nc1c2ccncc2cc2cn[nH]c12 [Compound 2a, 1-H-pyrazolo[3,4-g]isoquinolin-9-amine] | > 250 | 6.90 | 13 | 8 | 6.53 | 20 | 8 | 32 | 12 | 6.37 | 22 | 10 | 48 | 18 | 71 | 28 | 45 | 17 | 100 | 90 | Selectivity Index (SI) Haspin vs. CLK1 = CLK1 IC50/Haspin IC50 ([1]; Haspin vs. CLK1): 2.3; pIC50 (RnDYRK1A-kd): 6.22; pIC50 (GSK3β): 6.39; pIC50 (CDK5/p25; 10 μM ATP, duplicate): 6.03; kinases inhibited to more than 50% at 1 μM [2]: six out of eight |
| Cn1ncc2cc3cnccc3c(N)c21 [Compound 2b, 1-Methyl-1H-pyrazolo[3,4-g]isoquinolin-9-amine] | 174 to 175 | 6.95 | 10 | 14 | 6.26 | 36 | 8 | 18 | 5 | 6.24 | 39 | 15 | 68 | 44 | 77 | 42 | 72 | 60 | 91 | 71 | Selectivity Index (SI) Haspin vs. DYRK1A ([1]; Haspin vs. DYRK1A, which was more inhibited than CLK1): 2.4; pIC50 (RnDYRK1A-kd): 6.56 |
| CCn1ncc2c(C3CC3)c3cnccc3c([N+](=O)[O-])c21 [Compound 3d, 4-Cyclopropyl-1-ethyl-9-nitro-1H-pyrazolo[3,4-g]isoquinoline] | 97 | 6.51 | 21 | 12 | 6.64 | 24 | 5 | 67 | 29 | 6.58 | 33 | 11 | 17 | 5 | 61 | 15 | 67 | 24 | 99 | 82 | pIC50 (GSK3β): 6.65 |
| CCCCc1c2cnccc2c([N+](=O)[O-])c2c1cnn2CC [Compound 3e, 4-Butyl-1-ethyl-9-nitro-1H-pyrazolo[3,4-g]isoquinoline] |  |  | 78 | 19 |  | 58 | 16 | 72 | 16 |  | 33 | 10 | 39 | 10 | 100 | 60 | 82 | 57 | 78 | 35 |  |
| CCn1ncc2cc3cncc(Br)c3c([N+](=O)[O-])c21 [Compound 4, 8-Bromo-1-ethyl-9-nitro-1H-pyrazolo[3,4-g]isoquinoline] |  |  | 77 | 23 |  | 42 | 18 | 52 | 25 |  | 59 | 18 | 88 | 80 | 100 | 80 | 92 | 32 | 77 | 54 | inhibition at 1 µM ([1]; read-out: Haspin inhibition at 1 μM, 1 μM compound, % inhibition): 23% |
| COc1ncc2cc3cnccc3c([N+](=O)[O-])c2n1 [I] |  |  |  |  |  |  |  |  |  |  |  |  |  |  |  |  |  |  |  |  | kinases inhibited when tested on a large panel of 486 kinases (panel of 486 kinases): 12% |
